Nine molecules from patent US20240327417A1, “HETEROCYCLIC COMPOUNDS” (BeiGene Switzerland GmbH, priority 2021, published 2024) can be followed below.

Assay [1] deals with T1, Full length DGKζ (in-house protein M1-V929) (Homo sapiens, UniProt Q13574).
T1 construct: His (N); TEV cleavage site (N); made in house; host or cells: Sf9 insect cells (baculovirus, Bac-to-Bac)
Briefly: Biochemical DGK IC50 assay (ADP-Glo, lipid micelle substrate), DGKζ. Particulars: 0.5 nM enzyme, 140 μM ATP, 80 μM DAG, 1 hour preincubation, 1 hour reaction, room temperature, read-out: IC50s for DGKζ. The method in brief: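 In-house full-length human DGKζ, baculovirus-expressed in Sf9 cells, was assayed with a DAG/PS lipid micelle substrate at room temperature. Buffer was 50 mM HEPES, 10 mM MgCl2, 0.01% BSA, 0.1 mM Na3VO4, 0.005% Tween-20, 0.01 mM CaCl2, with final compound 1.55˜10000 nM or 23.3˜150000 nM.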

In assay [2] the target is T2, Full length DGKα (D21-10BG, SignalChem) (Homo sapiens, UniProt P23743).
T2 construct: Full length DGKα (D21-10BG, SignalChem); purchased SignalChem D21-10BG
T2 sequence (P23743 whole entry): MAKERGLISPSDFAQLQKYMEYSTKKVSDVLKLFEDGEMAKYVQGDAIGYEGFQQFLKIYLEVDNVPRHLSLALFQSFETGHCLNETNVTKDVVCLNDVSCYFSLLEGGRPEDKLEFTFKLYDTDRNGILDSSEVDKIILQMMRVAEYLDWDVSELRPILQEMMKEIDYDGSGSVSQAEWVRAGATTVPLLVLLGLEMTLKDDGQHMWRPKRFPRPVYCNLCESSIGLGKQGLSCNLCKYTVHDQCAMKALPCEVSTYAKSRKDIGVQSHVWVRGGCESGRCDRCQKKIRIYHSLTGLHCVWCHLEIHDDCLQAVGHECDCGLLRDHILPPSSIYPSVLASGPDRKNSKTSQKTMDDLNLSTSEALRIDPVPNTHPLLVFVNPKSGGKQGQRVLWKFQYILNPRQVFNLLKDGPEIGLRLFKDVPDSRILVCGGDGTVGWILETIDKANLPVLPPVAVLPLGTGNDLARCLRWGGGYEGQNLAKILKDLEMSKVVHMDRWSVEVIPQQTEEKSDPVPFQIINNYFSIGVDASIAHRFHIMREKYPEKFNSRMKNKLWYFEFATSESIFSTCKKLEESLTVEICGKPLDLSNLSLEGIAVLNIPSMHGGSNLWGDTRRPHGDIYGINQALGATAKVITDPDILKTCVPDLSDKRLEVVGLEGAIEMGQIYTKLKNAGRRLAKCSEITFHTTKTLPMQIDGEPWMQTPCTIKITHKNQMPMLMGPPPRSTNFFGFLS
In words: Biochemical DGK IC50 assay (ADP-Glo, lipid micelle substrate), DGKα. Particulars: 7.5 nM enzyme, 140 μM ATP, 80 μM DAG, 1 hour preincubation, 1 hour reaction, room temperature, read-out: IC50s for DGKα. The method, boiled down:
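Full-length enzyme was assayed by ADP-Glo on DAG/PS lipid micelles at room temperature in HEPES/MgCl2/CaCl2 buffer with BSA, Na3VO4 and Tween-20, using a 1 h reaction and luminescence read-out.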
On the technique in general: In ADP-Glo the light output rises with the ADP produced.

T1 sequence (Q13574 1-929 isoform Q13574-4): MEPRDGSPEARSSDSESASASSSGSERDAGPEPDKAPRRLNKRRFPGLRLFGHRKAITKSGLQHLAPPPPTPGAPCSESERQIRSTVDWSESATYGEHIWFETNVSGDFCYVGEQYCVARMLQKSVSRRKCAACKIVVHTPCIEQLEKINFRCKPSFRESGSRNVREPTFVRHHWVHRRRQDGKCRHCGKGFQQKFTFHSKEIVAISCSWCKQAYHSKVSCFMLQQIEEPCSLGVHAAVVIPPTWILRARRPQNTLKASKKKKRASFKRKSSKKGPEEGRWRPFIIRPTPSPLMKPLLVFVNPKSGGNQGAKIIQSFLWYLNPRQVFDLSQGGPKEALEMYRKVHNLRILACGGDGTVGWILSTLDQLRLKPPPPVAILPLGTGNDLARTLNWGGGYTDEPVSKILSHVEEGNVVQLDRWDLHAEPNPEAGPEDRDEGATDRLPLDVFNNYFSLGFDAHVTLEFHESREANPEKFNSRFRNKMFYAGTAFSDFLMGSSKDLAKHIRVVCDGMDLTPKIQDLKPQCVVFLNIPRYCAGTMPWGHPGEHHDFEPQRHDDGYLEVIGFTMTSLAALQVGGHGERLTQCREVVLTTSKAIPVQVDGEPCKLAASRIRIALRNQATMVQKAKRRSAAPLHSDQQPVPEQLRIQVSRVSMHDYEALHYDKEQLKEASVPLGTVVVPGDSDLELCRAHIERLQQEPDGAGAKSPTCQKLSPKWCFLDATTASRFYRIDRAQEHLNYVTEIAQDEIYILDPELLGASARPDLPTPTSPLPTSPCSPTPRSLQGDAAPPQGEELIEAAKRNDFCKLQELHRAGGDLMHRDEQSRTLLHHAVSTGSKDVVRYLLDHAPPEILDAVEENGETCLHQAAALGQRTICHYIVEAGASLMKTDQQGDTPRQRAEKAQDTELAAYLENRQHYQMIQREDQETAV

Take `CC(c1ccc2ncc(Cl)nc2c1)N1C[C@H](C)N(c2cc(=O)n(C)n3cc(CC#N)nc23)C[C@H]1C` (stereo partly drawn) [Compound A21, 2-(8-((2S,5R)-4-(1-(3-chloroquinoxalin-6-yl)ethyl)-2,5-dimethylpiperazin-1-yl)-5-methyl-6-oxo-5,6-dihydroimidazo[1,2-b]pyridazin-2-yl)acetonitrile]: the IC50 was found to be 27 nM in assay [1] and 2710 nM in assay [2].
In the case of `Cc1cnc2ccc(C(C)N3C[C@H](C)N(c4c(F)c(=O)n(C)n5cc(CC#N)nc45)C[C@H]3C)cc2n1` (stereo partly drawn) [Compound A22, 2-(8-((2S,5R)-2,5-dimethyl-4-(1-(3-methylquinoxalin-6-yl)ethyl)piperazin-1-yl)-7-fluoro-5-methyl-6-oxo-5,6-dihydroimidazo[1,2-b]pyridazin-2-yl)acetonitrile], the IC50 worked out at 95 nM in assay [1] and 10800 nM in assay [2].
`Cc1cnc2ccc(C(C)N3C[C@H](C)N(c4c(C#N)c(=O)n(C)n5cc(CC#N)nc45)C[C@H]3C)cc2n1` (stereo partly drawn) [Compound A23, 2-(cyanomethyl)-8-((2S,5R)-2,5-dimethyl-4-(1-(3-methylquinoxalin-6-yl)ethyl)piperazin-1-yl)-5-methyl-6-oxo-5,6-dihydroimidazo[1,2-b]pyridazine-7-carbonitrile]: the IC50 in assay [1] is 39 nM; in assay [2], 2280 nM.
As to `CC(c1ccc2c(c1)OCCO2)N1C[C@H](C)N(c2cc(=O)n(C)n3cc(CC#N)nc23)C[C@H]1C` (stereo partly drawn) [Compound A24, 2-(8-((2S,5R)-4-(1-(2,3-dihydrobenzo[b][1,4]dioxin-6-yl)ethyl)-2,5-dimethylpiperazin-1-yl)-5-methyl-6-oxo-5,6-dihydroimidazo[1,2-b]pyridazin-2-yl)acetonitrile], the IC50 in assay [1] stood at 230 nM; in assay [2], 2870 nM.
For `CC(c1ccc2c(c1)OCO2)N1C[C@H](C)N(c2cc(=O)n(C)n3cc(CC#N)nc23)C[C@H]1C` (stereo partly drawn) [Compound A29, 2-(8-((2S,5R)-4-(1-(benzo[d][1,3]dioxol-5-yl)ethyl)-2,5-dimethylpiperazin-1-yl)-5-methyl-6-oxo-5,6-dihydroimidazo[1,2-b]pyridazin-2-yl)acetonitrile] the same measures were 474 nM and 296 nM.
As to `CC(c1ccc2c(c1)OC(F)(F)O2)N1C[C@H](C)N(c2cc(=O)n(C)n3cc(CC#N)nc23)C[C@H]1C` (stereo partly drawn) [Compound A31, 2-(8-((2S,5R)-4-(1-(2,2-difluorobenzo[d][1,3]dioxol-5-yl)ethyl)-2,5-dimethylpiperazin-1-yl)-5-methyl-6-oxo-5,6-dihydroimidazo[1,2-b]pyridazin-2-yl)acetonitrile], the IC50 was determined as 1130 nM in assay [1] and 1970 nM in assay [2].
As for `CC[C@H]1CN(C(C)c2ccc(F)cc2OC)[C@H](CC)CN1c1cc(=O)n(C)n2cc(CC#N)nc12` (stereo partly drawn) [Compound A32, 2-(8-((2S,5R)-2,5-diethyl-4-(1-(4-fluoro-2-methoxyphenyl)ethyl)piperazin-1-yl)-5-methyl-6-oxo-5,6-dihydroimidazo[1,2-b]pyridazin-2-yl)acetonitrile], the IC50 in assay [1] came out at 110 nM; in assay [2], 6420 nM.
Consider `CC[C@H]1CN(C(C)c2ccc(F)cc2C(F)F)[C@H](CC)CN1c1cc(=O)n(C)n2cc(CC#N)nc12` (stereo partly drawn) [Compound A34, 2-(8-((2S,5R)-4-(1-(2-(difluoromethyl)-4-fluorophenyl)ethyl)-2,5-diethylpiperazin-1-yl)-5-methyl-6-oxo-5,6-dihydroimidazo[1,2-b]pyridazin-2-yl)acetonitrile], for which the IC50 in assay [1] worked out at 14 nM; in assay [2], 3510 nM.
Consider `CC[C@H]1CN(C(C)c2ccncc2)[C@H](CC)CN1c1cc(=O)n(C)n2cc(CC#N)nc12` (stereo partly drawn) [Compound A35, 2-(8-((2S,5R)-2,5-diethyl-4-(1-(pyridin-4-yl)ethyl)piperazin-1-yl)-5-methyl-6-oxo-5,6-dihydroimidazo[1,2-b]pyridazin-2-yl)acetonitrile], for which the IC50 in assay [1] amounted to 3120 nM; in assay [2], 42 nM.
